Data as given in paper PMC10878790 (The Journal of Biological Chemistry, 2024).
Read-outs that look alike come from different tables or passages of the source.

Tests used:
MDA-MB-231 cells [1] = test: Wound healing assay; type: cell-based; settings: for inhibition of migration: equimolar peptide concentrations, compared to untreated cells
Description: (§1) The wound healing assay was performed using two breast cancer cell lines, MDA-MB-231 and MCF-7, and two prostate cancer cell lines, PC-3 and DU-145, to evaluate the antimigratory capacity of the peptides. […] The cells were grown to approximately 80% confluency in 12-well tissue culture plates, and a cell-free area was created by scraping the monolayer. The peptides were added, and the cells were incubated at 37 °C with 5% CO2 for 24 h. Wound closure was assessed by imaging the wounds at 0 and 24 h, and the wound areas were quantified using ImageJ software (https://imagej.net/ij/). In the transwell invasion assay, MDA-MB-231 cells were serum starved for 4 h followed by a pretreatment with increasing concentrations of each peptide in a 0.1% serum-containing DMEM for 24 h. The cells were then trypsinized, resuspended in same media for the second treatment of peptides, and counted. Next, 40,000 cells were resuspended in 0.1% serum containing DMEM and added to the upper chamber of Transwell plates (Corning Life Sciences) with a polyethylene terephthalate membrane (6.4 mm diameter, 8 μm pore size). The bottom chambers were filled with DMEM containing 10% FBS as a chemoattractant. The transwell plates were incubated at 37 °C with 5% CO2 for 24 h to allow the invasion of cells through the membrane. The invaded cells on the lower side of the membrane were fixed with 4% paraformaldehyde for 15 min, followed by a PBS wash. The membrane inserts were further fixed with ice-cold methanol for 20 min and stained with 0.25% (w/v) crystal violet. After incubation, the noninvasive cells on the upper surface of the membrane were gently removed using a cotton swab. Random fields were chosen for imaging, and the number of invaded cells was counted using ImageJ software. The results were expressed as the average number of invaded cells compared with the control.

MDA-MB-231 cells [2] = test: Western blot of MIEN1 signaling pathway proteins; type: cell-based; settings: mean values of immunoblot densitometry
Description: Cells were exposed to the peptides and subjected to Western blot analysis with the indicated antibodies. […] Cytoplasmic and nuclear cell lysate extracts of EGF only and EGF plus peptide-treated cells were probed for p65 and p50. Lamin A/C and β-actin were used as nuclear and cytoplasmic loading control respectively. Densitometry was determined with immunoblots (N = 3) and normalized to total protein or β-actin for whole cell lysates and cytoplasmic fraction of peptide-treated MDA-MB-231 cells. In case of nuclear lysates, the immunoblots were normalized with Lamin A/C. Bar graphs are densitometric data (means ± SD). […] EGF concentration: (10 ng/ml); Peptide concentration: 90 μM. EGF, epidermal growth factor; MIEN1, migration and invasion enhancer 1; NF-κB, nuclear factor kappa B.
Western blot analysis was performed according to standard protocols to assess the effects of MIEN1-derived peptides and their analogs on MDA-MB-231 cells and DU-145 cells. Cell lysates were prepared using radioimmunoprecipitation assay buffer and quantified for protein content by bicinchoninic acid method. […] Protein blocking with 5% bovine serum albumin was followed by incubation with primary antibodies specific to various proteins at 4 °C for 8 to 10 h. The membrane was then washed three times in Tris Buffered Saline with Tween 20 and incubated with the appropriate secondary antibody. Protein bands were visualized using the Alpha Innotech chemiluminescent detection system. In case of MDA-MB-231 cells, cytoplasmic and nuclear extracts were isolated to investigate the effects of peptides and/or EGF stimulation. Prior to exposure to the cells, the test peptides (90 μM) were incubated with EGF (10 ng/ml) in media at 4 °C for 15 min. The untreated MDA-MB-231 cells received EGF alone at the same concentration. The isolation of cytoplasmic and nuclear fractions was performed using the Subcellular Protein Fractionation Kit for Cultured Cells from Thermo Fisher Scientific (cat #78840) following the manufacturer's guidelines. For Western blot experiments, 20 μg of purified cytoplasmic and nuclear fraction was used.
Densitometry analysis of Western blot data was conducted using the AlphaView-FluorChem HD2 software of the Alpha Innotech chemiluminescent detection system (https://www.cambridgescientific.com/product/alpha-innotech-fluorchem-hd2-gel-imaging-system). To quantify band intensities, a uniform rectangle was drawn around each band, and background subtraction was applied to determine the total pixel density for each lane. Further calculations, including the determination of the ratio of phosphorylated proteins to total proteins or other loading controls, were carried out using Microsoft Excel. […]

in vitro [3] = settings: microsomes
Description: An NADPH-regenerating system (1.7 mg/ml NADP, 7.8 mg/ml glucose-6-phosphate, 6 U/ml glucose-6-phosphate dehydrogenase in 2% w/v NaHCO3/10 mm MgCl2) was added for analysis of Phase I metabolism after heating both the regenerating solution and the sample tubes to 37 °C for 5 min in a 37 °C shaking water bath. The incubation was continued and at varying time points after addition of phase I cofactors, the reaction was stopped by the addition of 0.5 ml of acetonitrile containing IS and formic acid such that the final concentration of IS was 100 ng/ml and acid was 0.1%. Time 0 samples were stopped with the acetonitrile solution while still on ice prior to addition of the NADPH regenerating system and compound, which were subsequently added. The samples were incubated for 10 min at room temperature and then spun at 16,100g for 5 min in a microcentrifuge at 4 °C. The supernatant was analyzed by LC-MS/MS. The method described by McNaney et al. was used with modification for determination of metabolic stability half-life by substrate depletion ([59]). A “% remaining” value was used to assess the metabolic stability of a compound over time. The LC-MS/MS peak area of the incubated sample at each time point was divided by the LC-MS/MS peak area of the time 0 (T0) sample and multiplied by 100. The natural Log (LN) of the % remaining of compound was then plotted versus time (in min) and a linear regression curve was plotted going through y-intercept at LN (100).

in vitro [4] = settings: plasma
Description: CD1 mouse plasma isolated using acidified citrate dextrose was purchased from BioIVT. Each peptide's dimethyl sulfoxide stock was then mixed into the plasma, resulting in a 2 μM final concentration. An aliquot was immediately collected for a zero time point and quenched with an equal volume of acetonitrile containing 0.2% formic acid and 200 ng/ml tolbutamide IS. […] Samples were withdrawn at specific intervals and processed similarly to the zero time point. The supernatant obtained after vortexing and centrifugation was subjected to LC-MS/MS analysis as previously detailed. A control incubation was performed using 0.9% NaCl (saline).

[5] = mouse, in vivo, iv, 5 mg/kg
in vivo = settings: female, CD1, mouse, iv, 5 mg/kg
[6] = Pharmacokinetic studies in CD1 mice; settings: mouse, in vivo, iv, 5 mg/kg
DU-145 = type: cell-based; settings: MTT, 48 hours
Description: (§2) MDA-MB-231, MCF-7, DU-145, PC-3, and NIH-3T3 cell lines were procured from the American Type Culture Collection and used within ten consecutive passages to ensure consistent cell behavior. MDA-MB-231, MCF-7, and NIH-3T3 cells were maintained at 37 °C and 5% CO2 in Dulbecco's modified Eagle's medium (DMEM) high glucose (Hyclone) supplemented with 10% fetal bovine serum (FBS) and 1% Antibiotic-Antimycotic (Gibco), while DU-145 and PC-3 cells were grown in RPMI-1640 supplemented with the same concentration of FBS and Antibiotic-Antimycotic. The media was replenished every 2 days. Cells were checked for mycoplasma at regular intervals using a PCR-based Mycoplasma detection kit plasmocin prophylactic (InvivoGen). In all experiments, cells were maintained in serum-free DMEM for 6 h before peptide treatment. Peptide treatment was done in the media containing 0.1% fetal bovine serum for 48 h in all the experiments unless otherwise stated.
(§3) Cell viability was determined by 3-[4,5-dimethylthiazol-2-yl]-2,5 diphenyl tetrazolium bromide (MTT) assay as described earlier ([52]). ProTox-II "Prediction of Toxicity of Chemicals" web server was used for toxicology assessment ([19]). See the Supporting Information for full experimental details.
(§4) Full Experimental Method for Cell Viability Assay:
(§5) Cell viability of murine NIH- 3T3 cells, as well as MDA- MB -231 , MC F-7, PC- 3, and DU-145 cells, wa s assessed through the MT T assay as described previously(1). Approximately
(§6) 5000 cells per well were seeded in a 96-well plate and allowed to incubate overnight for attachment. Following attachment, the growth medium was replaced wit h a fresh medium
(§7) containing serial dilutions of peptides. The cells we re then incubated for 48 hours in a 5% CO2 incubator . After incubation, 10 μl of a 5 mg/mL MT T solution was introduced to each
(§8) well and left to incubate for an additional 2 hours . Subsequently, the entire medium, along wit h the MT T solution, was aspirated, and the remaining formazan crystals were dissolved
(§9) in 200 μl of DMSO. The absorbance was measured at 595 nm using a Biotek Synergy 2 Plate Reader. […]
(§10) ProTox-II "Prediction of Toxicity of Chemicals" we b server was used for toxicology assessment. […]

MCF-7 = type: cell-based; settings: MTT, 48 hours
Description: as §2, §3, §4, §5, §6, §7, §8, §9, §10

MDA-MB-231 = type: cell-based; settings: MTT, 48 hours
Description: as §2, §3, §4, §5, §6, §7, §8, §9, §10

PC-3 = type: cell-based; settings: MTT, 48 hours
Description: as §2, §3, §4, §5, §6, §7, §8, §9, §10

NIH-3T3 = type: cell-based, murine; settings: MTT, 48 hours; normal cells
Description: as §2, §3, §4, §5, §6, §7, §8, §9, §10

DU-145 cells [7] = test: Wound healing assay; type: cell-based; settings: scrambled peptides compared to LA3IK and RP-7 at equivalent concentrations
Description: as §1

MCF-7 cells = test: Wound healing assay; type: cell-based; settings: scrambled peptides compared to LA3IK and RP-7 at equivalent concentrations
Description: as §1

PC-3 cells = test: Wound healing assay; type: cell-based; settings: scrambled peptides compared to LA3IK and RP-7 at equivalent concentrations
Description: as §1

DU-145 cells [8] = test: Quantitative real-time PCR of EMT-related genes; type: cell-based; settings: 48 h, 90 μM; for inhibition of the majority of the genes examined in the PCR analysis: except for SNAIL
Description: 18S RNA transcript levels were used for internal control. […] E-cadherin and SNAIL are increased and decreased, respectively, when probed with antibodies specific for these proteins as compared to the untreated. […] Densitometry was determined and normalized to total protein or β-actin. Peptide concentration: 90 μM. All the assays were performed in triplicates and the results are expressed as means ± SD. […] EMT, epithelial-mesenchymal transition; MMP-9, matrix metalloproteinase 9; NF-κB, nuclear factor kappa B.
Total RNA was extracted using the TRIzol reagent (Invitrogen). One microgram of total RNA was used for complementary DNA reverse transcription using the Superscript-III First Strand Synthesis kit (Invitrogen) following the manufacturer's protocol. All real-time PCR reactions were performed in duplicates in a 20 μl volume using SYBR Green Master Mix (Invitrogen) in a Realplex2 Mastercycler ep gradient S thermal cycler (Eppendorf). The PCR program followed for all the primers was an activation at 95 °C for 15 min, followed by 40 cycles of 95 °C for 30 s, 54 °C for 1 min, and 72 °C for 45 s. The reaction was finally put to hold at 4 °C. Subsequently, 18S was used as the reference gene for the mRNA levels. Relative change in gene expression was calculated according to the ΔΔCt method ([53], [54]).

Compound: CC[C@@H](C)[C@@H](NC(=O)[C@@H](C)NC(=O)[C@@H](CC(C)C)NC(C)=O)C(=O)N[C@H](C)C(=O)N[C@@H](C(=O)N[C@H](CCCCN)C(N)=O)C(C)C [D-LA3IK]
- decrease in cell migration compared to L counterpart (MDA-MB-231 cells [1]; identical concentrations of D- and L-isomer): 30.2%
- greater inhibition of FAK phosphorylation than L-peptide counterpart (MDA-MB-231 cells [2]): 34.2%
- greater inhibition of SRC phosphorylation than L-peptide counterpart (MDA-MB-231 cells [2]): 48.8%
- remaining at 2 h, 2 μM (in vitro [3]; male, Institute of Cancer Research/CD-1, mouse, pH 7.5): 100%
- half-life (in vitro [3]; mouse): > 2 h
- remaining at 24 h, 2 μM (in vitro [4]; CD1, mouse): 75%
- half-life (in vitro [4]; mouse): > 24 h
- AUC(0-t) [5]: 3400 ng·h/mL
- Cmax [5]: 3570 ng/mL
- clearance [5]: 24.5 mL/min/kg
- half-life [5]: 3.58 h
- MRT (in vivo): 1.03 h
- Tmax (in vivo): 4.8 min
- Vd (in vivo): 7.58 L/kg
- Vd [6]: 1.57 L/kg

Compound: Ac-LAKAVI-NH2 [LA3IK-SCR]
- IC50 (DU-145): 352 ± 7.18 µM
- IC50 (MCF-7): 133 ± 9.52 µM
- IC50 (MDA-MB-231): 243 ± 8.16 µM
- IC50 (PC-3): 319 ± 13.6 µM
- IC50 (NIH-3T3): > 600 µM
- antimigratory activity in wound healing assay (DU-145 cells [7]): reduced antimigratory activity
- antimigratory activity in wound healing assay (MCF-7 cells): reduced antimigratory activity
- inhibition of migration (MDA-MB-231 cells [1]): nonsignificant inhibition
- antimigratory activity in wound healing assay (PC-3 cells): reduced antimigratory activity
- gene expression in Zeb-1 and SNAIL (DU-145 cells [8]): statistically diminished
- inhibition of the majority of the genes examined in the PCR analysis (DU-145 cells [8]): statistically nonsignificant inhibition

Compound: Ac-RPPLVIC-NH2 [RP-7 SCR]
- IC50 (DU-145): 137 ± 5.98 µM
- IC50 (MCF-7): 150 ± 10.3 µM
- IC50 (MDA-MB-231): 156 ± 8.15 µM
- IC50 (PC-3): 128 ± 11.7 µM
- IC50 (NIH-3T3): > 600 µM
- antimigratory activity in wound healing assay (DU-145 cells [7]): reduced antimigratory activity
- antimigratory activity in wound healing assay (MCF-7 cells): reduced antimigratory activity
- inhibition of migration (MDA-MB-231 cells [1]): nonsignificant inhibition
- antimigratory activity in wound healing assay (PC-3 cells): reduced antimigratory activity
- expression of SLUG and Zeb-1 (DU-145 cells [8]): reduced expression
- inhibition of the majority of the genes examined in the PCR analysis (DU-145 cells [8]): statistically nonsignificant inhibition
